{"source": "patent US12384745B2", "about": "“Crystal form of five-membered n heterocyclic compound, and application thereof” (CHIA TAI TIANQING PHARMACEUTICAL GROUP CO., LTD., priority 2019, dated 2025)", "key": {"HBV DNA in HepAD38 cells": {"tested_on": "HBV DNA in HepAD38 cells", "assay": "In-vitro inhibitory activity against HBV DNA in HepAD38 cells", "type": "cell-based", "details": "Hepatitis B virus, 144 h, 6 days treatment, intracellular capsid HBV DNA by qPCR, read-out: EC50, anti-HBV activity", "procedure": "(§1) 2.1. In-vitro Inhibitory Activity Against HBV DNA in Cells\n(§2) A vial of HepG2.2.15 cells (Wuhan Institute of Virology) or HepAD38 cells in good condition and at logarithmic growth phase was washed once with 5 mL of PBS. 3 mL of pancreatin was added. The cells were digested at room temperature for 5 min, then 2 mL of pancreatin was discarded. The cells were further digested in a cell incubator for 10 min, and observed under a microscope (whether the cells are round in shape, and whether the cells are separated or adhered). 10 mL of complete medium was added to terminate the digestion. The cells was mixed using a pipette to obtain a single cell suspension. 10 μL of the cell suspension was loaded on a cell counter for counting, and diluted with the complete medium to adjust the cell density to 1×10^5 cells/mL. The cells were seeded on a 24-well plate (pre-coated with 50 μg/mL Collagen I solution) at 1 mL/well using a multi-channel pipette and cultured in a thermostatic CO2 incubator for 48 h.\n(§3) A solution of the compound dissolved in DMSO was diluted to 10 concentrations in a 2-fold gradient using complete medium. […] HBV DNA in the intracellular viral capsid was measured by real-time fluorescent quantitative PCR. The inhibition rate was calculated according to the Ct value, and the EC50 value was calculated by four-parameter fitting."}, "[1]": {"tested_on": "HBV DNA in HepG2.2.15 cells", "assay": "In-vitro inhibitory activity against HBV DNA in HepG2.2.15 cells", "type": "cell-based", "details": "Hepatitis B virus, 144 h, 6 days treatment, intracellular capsid HBV DNA by qPCR, read-out: EC50, anti-HBV activity", "procedure": "as §1, §2, §3"}, "HepG2.2.15 cells": {"tested_on": "HepG2.2.15 cells", "assay": "In vitro cytotoxicity (CCK-8)", "type": "cell-based", "details": "6 days treatment", "procedure": "2.2. In Vitro Cytotoxicity\nA vial of HepG2.2.15 cells (Wuhan Institute of Virology) in good condition and at logarithmic growth phase was washed once with 5 mL of PBS. 2 mL of pancreatin was added. The cells were incubated in a cell incubator for digestion, and observed at times under a microscope. 1 mL of pancreatin was discarded when the cells just fell off, leaving the residual liquid only. The cells were further incubated in the incubator at 37° C. for 8-15 min of digestion and observed under a microscope (whether the cells are round in shape, and whether the cells are separated or adhered). 5 mL of MEM medium was added for cell resuspension. The cell suspension was loaded on a cell counter for counting, and diluted with the complete medium to adjust the cell density to 2×10^5 cells/mL. The cells were seeded on a 96-well plate (pre-coated with 50 μg/mL Collagen I solution) at 100 μL/well using a multi-channel pipette and cultured in a thermostatic CO2 incubator for 24 h. The compound was added, and the medium containing the compound was refreshed every 3 days. A medium containing 0.5% of DMSO but no compound was added to the control wells, and control wells of basal medium were set. After 6 days of treatment, CCK-8 was added at 10 μL/well, and after 1-2 h, the absorbance at 450 nm was measured with a plate reader. The inhibition rate and CC50 were calculated."}, "[2]": {"assay": "Plasma protein binding assay, human plasma", "type": "in vitro ADME", "procedure": "(§4) 2.4. Plasma Protein Binding Assay\n(§5) Preparation of plasma samples: 5 μL of test compound solution or positive control was added to 495 μL of blank plasma of various species (mouse, rat, dog, monkey and human) to obtain plasma sample solutions at plasma concentrations of 1 μM and 10 μM (in acetonitrile).\n(§6) The pretreated dialysis membrane was loaded on a high-throughput equilibrium dialysis system. 100 μL of the plasma sample solution and PBS buffer were added to the two sides (sample side and buffer side) of the dialysis membrane respectively (n=3). The system was sealed with a patch and incubated at 37° C. overnight (100 rpm) to achieve dialysis equilibrium. 50 μL samples were taken from the sample side and the buffer side, and the reaction was terminated with glacial acetonitrile containing an internal standard.\n(§7) Sample pretreatment: 450 μL of glacial acetonitrile containing an internal standard was added to 50 μL of the sample from the plasma side for precipitation. The mixture was vortexed for 5 min, and centrifuged (12000 rpm, 4° C.) for 10 min. 75 μL of supernatant was taken and diluted with 75 μL of ultrapure water. After being mixed well, 1 μL of the resulting sample was injected for analysis; 250 μL of glacial acetonitrile containing an internal standard was added to 50 μL of the sample from the PBS side for precipitation. […]"}, "[3]": {"assay": "Plasma protein binding assay, rat plasma", "type": "in vitro ADME", "procedure": "as §4, §5, §6, §7"}, "[4]": {"assay": "Plasma protein binding assay, mouse plasma", "type": "in vitro ADME", "procedure": "as §4, §5, §6, §7"}, "[5]": {"assay": "Plasma protein binding assay, dog plasma", "type": "in vitro ADME", "procedure": "as §4, §5, §6, §7"}, "[6]": {"assay": "Plasma protein binding assay, monkey plasma", "type": "in vitro ADME", "procedure": "as §4, §5, §6, §7"}, "[7]": {"assay": "In vitro stability in human liver microsomes", "type": "in vitro ADME", "procedure": "(§8) Experimental Example 3. In Vitro Stability in Liver Microsome A final incubation system of 300 μL contained 30 μL of liver microsomes (protein concentration: 0.15 mg/mL, Corning), 30 μL of NADPH+MgCl2, 3 μL of substrate (in acetonitrile) and 237 μL of PBS. Samples were prepared in duplicate of 0.3 mL for each specie. For each tube, the 270 μL mixed solution of substrates and enzyme and the NADPH solution were separately pre-incubated at 37° C. for 5 min. The 30 μL mixed solution of NADPH+MgCl2 was added for reaction. 50-μL samples were taken at 0 min, 10 min, 30 min and 60 min, and 300 μL of glacial acetonitrile containing an internal standard was added to the samples to terminate the reaction. Sample pretreatment: 300 μL of glacial acetonitrile containing internal standard diazepam was added to 50 μL of the incubated sample for precipitation. The mixture was vortexed for 5 min, and centrifuged (12000 rpm, 4° C.) for 10 min. 75 μL of supernatant was added to a 96-well plate and diluted with 75 μL of ultrapure water. After being mixed well, 0.5 μL of the resulting sample was injected to a LC-MS/MS system for analysis."}, "[8]": {"assay": "In vitro stability in rat liver microsomes", "type": "in vitro ADME", "procedure": "as §8"}, "[9]": {"assay": "In vitro stability in mouse liver microsomes", "type": "in vitro ADME", "procedure": "as §8"}, "[10]": {"assay": "Pharmacokinetic (PK) study in rats", "type": "in vivo", "details": "SD rats, PO 10 mg/kg vs IV 5 mg/kg", "procedure": "Pharmacokinetic (PK) Study in Rats […]\nThe animals to be tested (SD rats) were fasted for 12 h before administration and fed 4 h after administration, and had free access to water before, after and during the experiment.\nAfter administration, about 0.2 mL of blood was collected from the orbit at 0 min, 15 min, 30 min, 1 h, 2 h, 4 h, 6 h, 8 h, 10 h, 24 h, 30 h and 48 h. After anticoagulation with EDTA-K2, the blood samples were transferred to a centrifuge at 4° C. within 30 min and centrifuged at 4000 rpm for 10 min to separate the plasma. All the plasma samples were collected and immediately stored at −20° C. for testing.\n50 μL of the plasma sample to be tested and standard curve sample were taken, and 500 μL of acetonitrile solution containing an internal standard (20 mg/mL diazepam) was added. The reaction system was shaken for 5 min and centrifuged at 12,000 rpm for 10 min. 75 μL of supernatant was taken and diluted with 75 μL of ultrapure water. After being mixed well, 1 μL of the resulting sample was taken for LC/MS/MS analysis."}, "[11]": {"assay": "Stability assay of crystalline form (influential factors)", "type": "physicochemical", "procedure": "1.1. Preparation of Samples\n500 mg of the crystalline form A of the compound of formula I prepared in Example 2 was placed in a dry and clean container, and evenly spread in a thin layer as the test sample. The sample was completely exposed to experimental conditions of influential factors (40° C., 60° C., 75% RH, 92.5% RH, high temperature and high humidity (40° C., 75% RH)). Samples were taken for analysis on day 10. The samples were completely exposed to illumination (visible light of 1,200,000 Lux·hr, UV of 216 W·hr/m^2) at room temperature.\n1.2. Chromatographic Conditions\nChromatographic column: Waters XBridge Shield RP18 (4.6 mm×150 mm, 3.5 μm).\nThe water content was measured by a Mettler V20 system.\n1.3. Preparation of Sample Solution\nAbout 12.5 mg of the sample was dissolved with an appropriate amount of a mixed diluent of acetonitrile-water (70:30) for content assay of related substance."}, "[12]": {"details": "High humidity (75% RH), 10 days"}, "[13]": {"details": "High humidity (92.5% RH), 10 days"}, "[14]": {"details": "High temperature (40° C.), 10 days"}, "[15]": {"details": "High temperature (60° C.), 10 days"}, "[16]": {"details": "High temperature and high humidity (40° C., 75% RH), 10 days"}}, "data": [{"compound": "Cc1[nH]c(C(=O)C(=O)N[C@@H](C)C(F)(F)F)c(C)c1C(=O)Nc1ccc(F)c(C#N)c1", "note": "[Compound of formula I, (S)-N-(3-cyano-4-fluorophenyl)-2,4-dimethyl-5-(2-oxo-2-((1,1,1-trifluoropropan-2-yl)amino)acetyl)-1H-pyrrol-3-formamide]", "values": [{"measurement": "EC50", "setting": "HBV DNA in HepAD38 cells", "result": 24, "unit": "nM"}, {"measurement": "EC50", "setting": "[1]", "result": 17.4, "unit": "nM"}, {"measurement": "CC50", "setting": "HepG2.2.15 cells", "result": "> 100000", "unit": "nM"}, {"measurement": "Binding rate", "setting": "[2]; 1 μM", "result": 97.3, "unit": "%"}, {"measurement": "Binding rate", "setting": "[2]; 10 μM", "result": 97.3, "unit": "%"}, {"measurement": "Binding rate", "setting": "[3]; 1 μM", "result": 95.0, "unit": "%"}, {"measurement": "Binding rate", "setting": "[3]; 10 μM", "result": 95.3, "unit": "%"}, {"measurement": "Binding rate", "setting": "[4]; 1 μM", "result": 85.4, "unit": "%"}, {"measurement": "Binding rate", "setting": "[4]; 10 μM", "result": 85.5, "unit": "%"}, {"measurement": "Binding rate", "setting": "[5]; 1 μM", "result": 94.0, "unit": "%"}, {"measurement": "Binding rate", "setting": "[5]; 10 μM", "result": 93.9, "unit": "%"}, {"measurement": "Binding rate", "setting": "[6]; 1 μM", "result": 90.2, "unit": "%"}, {"measurement": "Binding rate", "setting": "[6]; 10 μM", "result": 90.5, "unit": "%"}, {"measurement": "Human liver microsomes Residual content after 60 min", "setting": "[7]", "result": 99, "unit": "%"}, {"measurement": "Rat liver microsomes Residual content after 60 min", "setting": "[8]", "result": 99, "unit": "%"}, {"measurement": "Mouse liver microsomes Residual content after 60 min", "setting": "[9]", "result": 96, "unit": "%"}, {"measurement": "F", "setting": "[10]", "result": 100, "unit": "%"}]}, {"compound": "Cc1[nH]c(C(=O)C(=O)N[C@@H](C)C(F)(F)F)c(C)c1C(=O)Nc1ccc(F)c(C#N)c1", "note": "[(S)-N-(3-cyano-4-fluorophenyl)-2,4-dimethyl-5-(2-oxo-2-((1,1,1-trifluoropropan-2-yl)amino)acetyl)-1H-pyrrol-3-formamide]", "values": [{"measurement": "Related substance (total impurities)", "setting": "[11]; Day 0", "result": 0.57, "unit": "%"}, {"measurement": "Water", "setting": "[11]; Day 0", "result": 0.13, "unit": "%"}, {"measurement": "Related substance (total impurities)", "setting": "[11]; [12]", "result": 0.63, "unit": "%"}, {"measurement": "Water", "setting": "[11]; [12]", "result": 0.15, "unit": "%"}, {"measurement": "Related substance (total impurities)", "setting": "[11]; [13]", "result": 0.65, "unit": "%"}, {"measurement": "Water", "setting": "[11]; [13]", "result": 0.17, "unit": "%"}, {"measurement": "Related substance (total impurities)", "setting": "[11]; [14]", "result": 0.65, "unit": "%"}, {"measurement": "Water", "setting": "[11]; [14]", "result": 0.17, "unit": "%"}, {"measurement": "Related substance (total impurities)", "setting": "[11]; [15]", "result": 0.65, "unit": "%"}, {"measurement": "Water", "setting": "[11]; [15]", "result": 0.16, "unit": "%"}, {"measurement": "Related substance (total impurities)", "setting": "[11]; [16]", "result": 0.63, "unit": "%"}, {"measurement": "Water", "setting": "[11]; [16]", "result": 0.16, "unit": "%"}, {"measurement": "Related substance (total impurities)", "setting": "[11]; Illumination, 10 days", "result": 0.64, "unit": "%"}, {"measurement": "Water", "setting": "[11]; Illumination, 10 days", "result": 0.16, "unit": "%"}, {"measurement": "Stability at high humidity, at high temperature or under illumination", "setting": "[11]; summary of Table 2", "result": "good stability"}]}]}
